Measurements as given in ChEMBL document CHEMBL1146617, “2-Aryl-3,6-dialkyl-5-dialkylaminopyrimidin-4-ones as novel crf-1 receptor antagonists” (Bioorg Med Chem Lett, 2003).

Test: in vitro
Conditions: human, microsomes

SMILES | half-life [min]
CCCN(CCC)c1c(CC)nc(-c2c(C)cc(C)cc2OC)n(CC)c1=O | 2.3
CCCN(CCC)c1c(C)nc(-c2ccc(Cl)cc2Cl)n(CC)c1=O | 1.9
CCCN(CCC)c1c(C)nc(-c2c(C)cc(C)cc2OC)n(C(C)C)c1=O | 2.1
CCCN(CCC)c1c(C)nc(-c2c(C)cc(C)cc2C)n(C)c1=O | 4.6
CCCN(CCC)c1c(C)nc(-c2ccc(OC)cc2OC)n(CCOC)c1=O | 1.3
CCCN(CCC)c1c(C)nc(-c2c(C)cc(C)cc2OC)n(CCC)c1=O | 3
CCCN(CCC)c1c(C)nc(-c2ccc(OC)cc2OC)n(CC2CC2)c1=O | 1.5
CCCN(CCC)c1c(C)nc(-c2c(C)cc(C)cc2C)n(CCN2CCCC2)c1=O | 4.2
CCCN(CCC)c1c(C)nc(-c2c(C)cc(C)cc2OC)nc1O | 15.5

Further lines, results first:

half-life [min] | SMILES
3.6 | CCCN(CCC)c1c(C)nc(-c2c(C)cc(C)cc2C)n(CC)c1=O
1.8 | CCCN(CCC)c1c(C)nc(-c2c(OC)cccc2OC(F)F)n(CC)c1=O
3 | CCCN(CCC)c1c(C)nc(-c2c(C)cc(C)cc2OC)n(CCF)c1=O
7.5 | CCCN(CCC)c1c(C)nc(-c2c(C)cc(C)cc2C)nc1O
2.5 | CCCN(CCC)c1c(C)nc(-c2c(C)cc(C)cc2OC)n(C)c1=O
8.1 | CCCN(CCC)c1c(CC)nc(-c2c(C)cc(C)cc2OC)[nH]c1=O
9.4 | CCCN(CCC)c1c(C)nc(-c2ccc(OC)cc2OC)nc1O
2.3 | CCCN(CCC)c1c(C)nc(-c2ccc(OC)cc2OC)n(CCC)c1=O
13.3 | CCCN(CCC)c1c(C)nc(-c2c(OC)cccc2OC)nc1O
3.4 | CCCN(CCC)c1c(C)nc(-c2c(C)cc(C)cc2OC)n(CC(F)(F)F)c1=O
21.6 | CCCN(CCC)c1c(C)nc(-c2c(OC)cccc2OC(F)F)nc1O
